Laboratory results taken from patent US9637462B2, “Process for the preparation of N-iodoamides” (TECHNION RESEARCH & DEVELOPMENT FOUNDATION LIMITED, priority 2013, dated 2017).

How the values were obtained:
[1] = shake-flask, equal volumes, gravimetric recovery from organic layer; settings: 25 °C
[2] = Distribution coefficient (K) of amides between water-immiscible organic solvent and water (recovery of amides from aqueous solution); format: physicochemical; settings: 25° C., stirred 0.5 h
Method: A mixture of amide (weight of amide (W): 0.2-0.5 g), water (20-100 mL) and water immiscible organic solvent (the same volume as water) was stirred at 25° C. for 0.5 h. The organic layer was thoroughly separated, dried over Na2SO4, filtered and concentrated in vacuo to recover the amide. Distribution coefficient K was calculated according to the formula K=Wo/W−Wo, where Wo is weight of the recovered amide in g. Distribution coefficients of 3,5,5-trimethylhydantoin (3,5,5-TMH), 4,4-dimethyloxazolidin-2-one (DMO), 5,5-dimethylhydantoin (DMH) and succinimide in hexane, benzene, CCl4 and DCM are shown in Table 3.1.

[3] = PhH (benzene) / water (equal volumes)

Compound	melting point	partition coefficient dichloromethane / water [1]	Distribution coefficient (K) ([2]; CCl4 / water (equal volumes))	Distribution coefficient (K) ([2]; DCM / water (equal volumes))	Distribution coefficient (K) [2, 3]	Distribution coefficient (K) ([2]; hexane / water (equal volumes))
CC1(C)COC(=O)N1I	148 to 149 °C (dec.)					
CN1C(=O)N(I)C(C)(C)C1=O [1-ITMH, 1-iodo-3,5,5-trimethylhydantoin]	198 to 199 °C (dec.)					
CN1C(=O)NC(C)(C)C1=O [3,5,5-TMH, 3,5,5-trimethylhydantoin]		1.6 mass ratio (equal phase volumes)	0.1≦	1.6	0.1≦	0.1≦
CN1C(=O)N(I)C(=O)C1(C)C [3-ITMH, 3-iodo-1,5,5-trimethylhydantoin]	213 to 214 °C (dec.)					

The remaining lines, values ahead:

melting point	partition coefficient dichloromethane / water [1]	Distribution coefficient (K) ([2]; CCl4 / water (equal volumes))	Distribution coefficient (K) ([2]; DCM / water (equal volumes))	Distribution coefficient (K) [2, 3]	Distribution coefficient (K) ([2]; hexane / water (equal volumes))	Compound
		0.1≦	0.1≦	0.1≦	0.1≦	CC1(C)NC(=O)NC1=O [DMH, 5,5-dimethylhydantoin, reference compound]
	0.5 mass ratio (equal phase volumes)	0.1≦	0.5	0.1≦	0.1≦	CC1(C)COC(=O)N1 [DMO, 4,4-dimethyloxazolidin-2-one]
		0.1≦	0.1≦	0.1≦	0.1≦	O=C1CCC(=O)N1 [succinimide, reference compound]
